Assays:
redroot pigweed = experiment: Test Example 5: foliar treatment of field; assay type: in vivo, Amaranthus retroflexus; conditions: foliar spray, dosage 16 g/ha, 6 days after application
Protocol: (§1) A plastic pot having longer side of 27 cm, shorter side of 20 cm and depth of 7.5 cm was filled with soil and then seeded with ivyleaf morningglory (Ipomoea hederacea) and common cocklebur (Xanthium pensylvanicum). Three days after, barnyardgrass (Echinochloa crus-galli) was seeded therein and grown for 7 days in a greenhouse. Then, therein, transplanted were common lambsquarters (Chenopodium album), redroot pigweed and giant foxtail (Setaria faberi) which had been seeded and grown for 14 days in a green house in advance. The test plants were further grown in the greenhouse for 8 days. After then, present compound 7-7 was formulated into an emulsifiable concentrate according to Formulation Example 2 and then diluted to the prescribed amount with water containing a spreading agent and the dilution was uniformly sprayed over the foliage of the test plants with a sprayer at a rate of 1000 liters per hectare. After the application, the test plants were grown in the greenhouse for 6 days, and the herbicidal activity was examined.

[1] = tested on: barnyardgrass (Echinochloa crus-galli); experiment: Test Example 5: foliar treatment of field; assay type: in vivo; conditions: foliar spray, dosage 16 g/ha, 6 days after application
Protocol: as §1

[2] = tested on: common lambsquarters (Chenopodium album); experiment: Test Example 5: foliar treatment of field; assay type: in vivo; conditions: foliar spray, dosage 16 g/ha, 6 days after application
Protocol: as §1

[3] = tested on: giant foxtail (Setaria faberi); experiment: Test Example 5: foliar treatment of field; assay type: in vivo; conditions: foliar spray, dosage 16 g/ha, 6 days after application
Protocol: as §1

[4] = tested on: ivyleaf morningglory (Ipomoea hederacea); experiment: Test Example 5: foliar treatment of field; assay type: in vivo; conditions: foliar spray, dosage 16 g/ha, 6 days after application
Protocol: as §1

[5] = tested on: common cocklebur (Xanthium pensylvanicum); experiment: Test Example 5: foliar treatment of field; assay type: in vivo; conditions: foliar spray, dosage 16 g/ha, 6 days after application
Protocol: as §1

COC(=O)COc1ncccc1Oc1cc(-n2c(=O)cc(C(F)(F)F)n(C)c2=O)c(F)cc1Cl [Compound 7-7, 3-{2-chloro-4-fluoro-5-[3-methyl-2,6-dioxo-4-(trifluoromethyl)-1,2,3,6-tetrahydropyrimidin-1-yl]phenoxy}-2-(methoxycarbonyl)methoxypyridine]
growth of redroot pigweed (herbicidal activity) (redroot pigweed): completely controlled
melting point: 52.2 °C
growth of barnyardgrass (herbicidal activity) [1]: completely controlled
growth of common lambsquarters (herbicidal activity) [2]: completely controlled
growth of giant foxtail (herbicidal activity) [3]: completely controlled
growth of ivyleaf morningglory (herbicidal activity) [4]: completely controlled
growth of common cocklebur (herbicidal activity) [5]: completely controlled

From patent publication US6537948B1, “Uracil compounds and use thereof” (Sumitomo Chemical Company, Limited, priority 2000, dated 2003)
